“Also recorded” adds a separate entry of the source.
How the values were obtained:
[1] = system: mitochondria isolated from wild-type fibroblasts; assay: mitochondrial respiration assay, wild-type fibroblast mitochondria; format: biochemical, mouse; conditions: 8 µM AA; polarography, Clark electrode, 25°C; repeated at least three times
Experimental: (§1) Figure 3 Effect of AA on respiration and PTP opening in mitochondria of wild-type or CyP-D knock-out mouse fibroblasts. A, upper part: Western blot analysis assessing CyP-D expression in fibroblasts obtained from either wild-type or CyP-D knock-out mice; HKII was utilized to verify protein load; lower part: representative experiment showing oxygen consumption as assessed by polarography (see Methods) in mitochondria isolated from wild-type fibroblasts in the absence (a) or presence (b) of 8 µM AA. Experiments were started by adding 0.6 mg of mitochondria (Mito), followed by 100 µM ADP and 50 µM 2,4-dinitrophenol (DNP) (arrows). Each experiment was repeated at least three times. Oxygen consumption is reported as percentage of initial value on the y axis. B, bar graphs report the ratio between the CRC detected in the presence (CRC) and absence (CRC0) of increasing concentrations of AA, in mitochondria from either wild-type fibroblasts (left) or CyP-D knock-out fibroblasts (right). […] Results are mean±SD of at least 4 experiments.
(§2) Mitochondrial oxygen consumption was measured polarographically at 25°C with a Clark oxygen electrode (Yellow Springs Instruments, OH, USA). Mitochondria (0.6 mg per experimental point) were incubated in a solution of 130 mM KCl, 10 mM Tris-Mops, 1 mM Pi-Tris, 20 mM EGTA-Tris and 2 µM rotenone/5 mM succinate to assay basal respiration (state 4). […]

animal model = conditions: ref [4]; cited from earlier work
From the text: (§3) Antamanide (AA) is a monocyclic, homodetic decapeptide isolated from the poisonous mushroom Amanita phalloides. […] Little is known about the biochemical mechanisms underlying these diverse bioactivities. To explain its antitoxic activity, ...

tumour cell models = conditions: in vitro; ref [3]; cited from earlier work
From the text: as §3

[2] = system: hepatocyte membrane transporter for the phallotoxin phalloidin and for the amatoxin alpha-amanitin; conditions: proposed; ref [6], [7]; cited from earlier work
From the text: as §3

[3] = system: IL-2-induced multisystem organ edema; conditions: ref [5]; cited from earlier work
From the text: as §3

HeLa cells [4] = format: cell-based, human; conditions: 30 min preincubation, TMRM, n = 4
Experimental: Figure 5 Effect of AA on mitochondrial potential of HeLa cells. A, bar graphs report the ratio between the CRC detected in the presence (CRC) and absence (CRC0) of increasing concentrations of AA in mitochondria from HeLa cells. […] B,C cytofluorimetric analysis of mitochondrial depolarization. HeLa cells were incubated with the TMRM probe and treated for 1 hour with the reported concentrations of either clotrimazole (CTM) or TAT-HK peptide. An unrelated TAT-linked peptide (TAT-Ctr) is used as a negative control. […] Bar graphs in B display the percentage of cells with depolarized mitochondria (mean±SD, n = 4). […] Histograms in C report a representative experiment, where cells with polarized and depolarized mitochondria are indicated in red and grey, respectively.
(§4) Flow cytometry recordings were performed as described, [51], [52]. Briefly, at the end of the incubation, cells were resuspended in 135 mM NaCl, 10 mM HEPES, 5 mM CaCl2 and incubated at 37°C in either TMRM (10 nM) to detect mitochondrial depolarization (reduced TMRM staining), or in FITC-conjugated Annexin-V and propidium iodide (PI, 1 µg/ml), to detect phosphatidylserine exposure on the cell surface (increased FITC-conjugated Annexin-V staining) and loss of plasma membrane integrity (PI permeability and staining). […] Samples were analyzed on a FACSCanto II flow cytometer (Becton Dickinson, San Diego, CA, USA). Data acquisition and analysis were performed using FACSDiva software.

[5] = system: mitochondrial permeability transition pore (PTP), CyP-D knock-out fibroblasts; assay: CRC assay, mitochondria isolated from CyP-D knock-out mouse fibroblasts; format: biochemical; conditions: 25°C, Figure 3B
Experimental: as §1
Mitochondria were isolated either from livers of C57BL/6 mice through sequential centrifugations, or from cells, as described. To obtain mitochondria, cells were disrupted with a glass-Teflon potter in a buffer composed by 250 mM sucrose, 10 mM Tris-HCl, 0.1 mM EGTA-Tris, pH 7.4. […]
(§5) PTP opening was detected as a fluorescence increase.

[6] = system: mitochondria from CyP-D knock-out fibroblasts; assay: mitochondrial respiration assay, CyP-D knock-out fibroblast mitochondria; format: biochemical, mouse; conditions: polarography, Clark electrode, 25°C
Experimental: as §1, §2

HeLa cells [7] = format: cell-based, human; conditions: 30 min preincubation, then TAT-HK 1 hour
Experimental: A, cytofluorimetric analysis of cell death induction in HeLa cells treated for 1 hour with TAT-HK. […] TAT-Ctr was used as a negative control. Cells were double stained with Annexin V-FITC and propidium iodide (PI), to respectively evaluate apoptosis induction as phosphatidylserine exposure on the cell surface (increased Annexin V-FITC staining) and cell death as plasma membrane permeabilization (increased PI staining). We considered Annexin V^+ as early/intermediate apoptotic cells; PI^+ as necrotic cells; double stained as late apoptotic cells. Bar graphs display the percentage of each cell population (mean±SD, n = 4; double positive cells are added to both bars). […] B, histograms reporting a representative experiment, where viable cells are indicated in red, PI^+- and Annexin V^+-cells are indicated in grey and green, respectively.
as §4

[8] = system: mitochondrial permeability transition pore (PTP); format: biochemical, mouse
Experimental: A, chemical structure of AA. B, D, Ca^2+ retention capacity (CRC) either in phosphate (Pi) buffer (B) or in arsenate (Asi) buffer (D). Calcium Green-5N fluorescence is reported as arbitrary units on the y axis.
Mitochondria were isolated either from livers of C57BL/6 mice through sequential centrifugations, or from cells, as described. To obtain mitochondria, cells were disrupted with a glass-Teflon potter in a buffer composed by 250 mM sucrose, 10 mM Tris-HCl, 0.1 mM EGTA-Tris, pH 7.4. Nuclei and plasma membrane fractions were separated by a first mild centrifugation (700× g, 10 min), and mitochondria were then spinned down at a higher speed (7000× g, 10 min). All procedures were carried out at 0–4°C.
as §5

## Antamanide [AA]
[1]
  oxygen consumption: unaffected
Animal model
  antitumor action: displays an antitumor action in an animal model
Tumour cell models
  tumor cell growth inhibition: inhibits tumor cell growth in vitro
[2]
  antagonism of hepatocyte transporter for phalloidin and alpha-amanitin: competitively antagonizes a hepatocyte membrane transporter
[3]
  attenuation of edema: attenuates IL-2-induced multisystem organ edema
HeLa cells [4]; then CTM 1 hour
  reversal of CTM-induced mitochondrial depolarization: significantly decreased the percentage of cells with mitochondria depolarized by CTM (Student's t test analysis; *: p<0.01); also recorded: similarly reverted
HeLa cells [4]; then TAT-HK 1 hour
  reversal of TAT-HK-induced mitochondrial depolarization: similarly reverted
[5]
  PTP inhibition (CRC): totally ineffective
[6]
  oxygen consumption: unaffected
HeLa cells [7]
  effect on TAT-HK-induced necrotic response: virtually abolished the necrotic response
  residual apoptosis after TAT-HK: a small fraction of cells undergoing apoptosis was still detectable
HeLa cells [7]; n = 4, Student's t test *: p<0.01
  protection from TAT-HK induced death: significantly protected from TAT-HK induced death
[8]; AA at various concentrations, Figure 1C and D, mean±SD of at least 4 experiments, Student's t test
  CRC/CRC0: difference from CRC of untreated mitochondria: significant difference (Student's t test analysis; *: p<0.01)
[8]; Figure 2B, mean±SD of at least 4 experiments
  concentration at which the effect reaches a plateau (concentration-response CRC): about 20 µM
[8]; arsenate (Asi) buffer, Figure 1B, D
  PTP inhibition in arsenate: abrogated in the presence of arsenate; also recorded: act as pore inhibitors only in Pi buffer
[8]; combination with CsA, Figure 1C
  additivity of PTP inhibition with CsA: not additive with that of CsA
[8]; combination with Ub0, Figure 1C, t test #: p<0.01
  additivity of PTP inhibition with Ub0: AA did increase inhibition by Ub0; also recorded: additive with that of Ub0
[8]; phosphate-containing medium, Calcium Green-5N, 25°C
  PTP inhibition (CRC): AA inhibited pore opening, similar to the PTP inhibitors CsA or Ubiquinone 0

— publication PMC3030572, “Antamanide, a Derivative of Amanita phalloides, Is a Novel Inhibitor of the Mitochondrial Permeability Transition Pore” (PLoS ONE, 2011)
